Measured values reported in the supplement of paper PMC7600603.

Experiments:
DLD1 NRF2-GOF [1] = settings: 72 h; CellTiter-Glo viability
Outline: (§1)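 DLD1 colorectal cancer cells, an isogenic pair either NRF2 wild-type or carrying a CRISPR gain-of-function, were cultured in DMEM with 10% FBS and treated in 384-well plates with library compounds at 5 concentrations across a 10,000-fold range. CellTiter-Glo viability was read on a Pherastar FS reader after 72 h and normalised to vehicle wells and 100-μM positive-control wells. Four-parameter logistic dose-response fits were applied. EC50 and drug sensitivity score, a normalised area under the curve, were taken from these fits.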

DLD1 NRF2-WT [2] = settings: 72 h; CellTiter-Glo viability
Outline: as §1

DLD1 NRF2-GOF [3] = test: drug sensitivity score (DSS) cytotoxicity (DSS score); higher = more toxic; extreme values may be limits of the assay; settings: 72 h; CellTox Green cytotoxicity
Outline: (§2)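 TC50 and drug sensitivity score, a normalised area under the curve, were derived by logistic dose-response fits of cytotoxicity. The cells were an isogenic DLD1 colorectal cancer pair, NRF2 wild-type or CRISPR-edited, kept in DMEM with 10% FBS. Compounds were tested in 384-well plates at 5 concentrations across a 10,000-fold range for 72 h. Readings with CellTox Green on a Pherastar FS reader were normalised to vehicle wells and 100-μM positive-control wells.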

DLD1 NRF2-WT [4] = test: as above; settings: 72 h; CellTox Green cytotoxicity
Outline: as §2

DLD1 NRF2-GOF [5] = test: drug sensitivity score (DSS) viability (DSS score); higher = more sensitive; extreme values may be limits of the assay; settings: 72 h; CellTiter-Glo viability
Outline: as §1

DLD1 NRF2-WT [6] = test: as above; settings: 72 h; CellTiter-Glo viability
Outline: as §1

DLD1 NRF2-GOF [7] = test: TC50 cytotoxicity; higher = less toxic; settings: 72 h; CellTox Green cytotoxicity
Outline: as §2

DLD1 NRF2-WT [8] = test: TC50 cytotoxicity; higher = less toxic; settings: 72 h; CellTox Green cytotoxicity
Outline: as §2

SMILES | EC50 viability (DLD1 NRF2-GOF [1]) [nM] | EC50 viability (DLD1 NRF2-WT [2]) [nM] | drug sensitivity score (DLD1 NRF2-GOF [3]) | drug sensitivity score (DLD1 NRF2-WT [4]) | drug sensitivity score (DLD1 NRF2-GOF [5]) | drug sensitivity score (DLD1 NRF2-WT [6]) | TC50 cytotoxicity (DLD1 NRF2-GOF [7]) [nM] | TC50 cytotoxicity (DLD1 NRF2-WT [8]) [nM]
N.N.[Cl][Pt][Cl] [Cisplatin] | 30600 | 27900 | 1.2 | 1.4 | 4.8 | 5.2 | – | –
C#Cc1cccc(Nc2ncnc3cc(OCCOC)c(OCCOC)cc23)c1 [Erlotinib] | 3540 | 321 | 0 | 0 | 1.3 | 6.9 | > 10000 | > 10000
CC(=O)O[C@H]1C(=O)[C@@]2(C)[C@H]([C@H](OC(=O)c3ccccc3)[C@]3(O)C[C@H](OC(=O)[C@H](O)[C@@H](NC(=O)c4ccccc4)c4ccccc4)C(C)=C1C3(C)C)[C@]1(OC(C)=O)CO[C@@H]1C[C@@H]2O [Paclitaxel] | 3.9 | 3.2 | 4.7 | 10.5 | 24 | 24.1 | > 1000 | 17.4
NS(=O)(=O)NCCNc1nonc1/C(=N/O)Nc1ccc(F)c(Br)c1 [Epacadostat] | 1750 | 1670 | 0 | 0 | 3.2 | 3.8 | > 10000 | > 10000
COc1cc(Br)c(Nc2nc(-c3c(C)nc4ncccn34)cs2)c(Br)c1 [PTC-209] | 1440 | 464 | 0 | 0 | 6.2 | 10.8 | > 10000 | > 10000
C[C@@H](C(=O)O)c1ccc(-c2ccccc2)c(F)c1 [Tarenflurbil] | > 10000 | > 10000 | 0 | 0 | 0 | 0 | > 10000 | > 10000
CCOc1ccccc1-n1c(C(C)N2CCN(C(=O)COc3ccc(Cl)cc3)CC2)nc2ccccc2c1=O (centres undefined) [Erastin] | > 10000 | > 10000 | 0 | 0 | 0 | 0 | > 10000 | > 10000
CCCCOc1nc(N)c2c(n1)N(Cc1cccc(CN3CCCC3)c1)CC(=O)N2 [Vesatolimod] | > 10000 | > 10000 | 0 | 0 | 0.1 | 0 | > 10000 | > 10000
CN[C@@H]1C[C@H]2O[C@@](C)([C@@H]1OC)n1c3ccccc3c3c4c(c5c6ccccc6n2c5c31)C(=O)N[C@H]4O [UCN-01] | 578 | 344 | 5 | 10.4 | 12.6 | 16.4 | – | 302
CC[C@]12C=CCN3CC[C@@]4(c5cc([C@@]6(C(=O)OC)C[C@@H]7C[C@@H](C(C)(F)F)CN(Cc8c6[nH]c6ccccc86)C7)c(OC)cc5N(C)[C@H]4[C@@](O)(C(=O)OC)[C@@H]1OC(C)=O)[C@@H]32 [Vinflunine] | 162 | 143 | 1 | 1.3 | 6.9 | 7 | – | > 1000
CC[C@]1(O)C[C@H]2CN(CCc3c([nH]c4ccccc34)[C@@](C(=O)OC)(c3cc4c(cc3OC)N(C=O)[C@H]3[C@@](O)(C(=O)OC)[C@H](OC(C)=O)[C@]5(CC)C=CCN6CC[C@]43[C@@H]65)C2)C1 [Vincristine] | 4.9 | 6.3 | 5.5 | 6.8 | 22.8 | 22.4 | > 1000 | –
CO[C@H]1C(=O)[C@]2(C)[C@@H](OC)C[C@H]3OC[C@@]3(OC(C)=O)[C@H]2[C@H](OC(=O)c2ccccc2)[C@]2(O)C[C@H](OC(=O)[C@H](O)[C@@H](NC(=O)OC(C)(C)C)c3ccccc3)C(C)=C1C2(C)C [Cabazitaxel] | 1.6 | 1.5 | 0.3 | 6.6 | 25.7 | 27.1 | > 1000 | –
CN1C(=O)N[C@H](Cc2c[nH]c3c(Cl)cccc23)C1=O [Necrostatin 2] | > 10000 | > 10000 | – | – | 0 | 0 | – | –
CN1CCN(c2ccc3nc(-c4c(N)c5c(F)cccc5[nH]c4=O)[nH]c3c2)CC1 [Dovitinib] | > 10000 | > 10000 | – | – | 0 | 1.6 | – | –
COc1cccc2c1C(=O)c1c(O)c3c(c(O)c1C2=O)C[C@@](O)(C(C)=O)C[C@@H]3O[C@H]1C[C@H](N)[C@H](O)[C@H](C)O1 [Daunorubicin] | 165 | 156 | – | – | 7.2 | 8.3 | – | –
Cn1cnc2c(F)c(Nc3ccc(Br)cc3Cl)c(C(=O)NOCCO)cc21 [Selumetinib] | > 10000 | – | 0 | 0 | 0 | 2 | > 10000 | > 10000
Cn1cc(-c2[nH]c3cc(NC(=O)[C@H](N)C4CCCCC4)cc4c3c2C=NNC4=O)cn1 | 812 | 878 | 2.7 | 1 | 8.8 | 9 | – | > 10000
CCc1c2c(nc3ccc(O)cc13)-c1cc3c(c(=O)n1C2)COC(=O)[C@]3(O)CC [SN-38] | 158 | 337 | 2 | 2.3 | 17.5 | 12.7 | – | 1670
CNC(=O)c1ccccc1Nc1nc(Nc2ccc3c(c2OC)CCC[C@H](N2CCN(CCO)CC2)C3)ncc1Cl | 450 | 610 | 1.8 | 3 | 9.3 | 9.2 | – | 1210
Clc1ccc(Nc2nnc(Cc3ccncc3)c3ccccc23)cc1 [Vatalanib] | > 10000 | > 10000 | – | – | 0 | 0 | – | –
Cc1sc2c(c1C)C(c1ccc(Cl)cc1)=N[C@@H](CC(=O)Nc1ccc(OCCOCCOCCOCCNc3cccc4c3C(=O)N(C3CCC(=O)NC3=O)C4=O)cc1)c1nnc(C)n1-2 (some centres undefined) [ARV-825] | 36.5 | 12.9 | 1.1 | 4 | 5 | 9.1 | > 300 | –
CO[C@H]1C[C@@H]2CC[C@@H](C)[C@@](O)(O2)C(=O)C(=O)N2CCCC[C@H]2C(=O)O[C@H]([C@H](C)C[C@@H]2CC[C@@H](OC(=O)C(C)(CO)CO)[C@H](OC)C2)CC(=O)[C@H](C)/C=C(\C)[C@@H](O)[C@@H](OC)C(=O)[C@H](C)C[C@H](C)/C=C/C=C/C=C/1C [Temsirolimus] | > 100 | > 100 | – | – | 1.3 | 4.1 | – | –
Cc1ccc(C(=O)N(CCCN)[C@@H](c2oc3cc(Cl)ccc3c(=O)c2Cc2ccccc2)C(C)C)cc1 | 3.1 | 2.8 | 1.5 | 2.8 | 13.5 | 12.7 | > 100 | –
COc1cc2c(NC3CCN(C(C)C)CC3)nc(C3CCCCC3)nc2cc1OCCCN1CCCC1 [UNC0638] | > 10000 | – | 0 | 0 | 0.2 | 2.4 | > 10000 | > 10000

Further lines, with some results ahead:

EC50 viability (DLD1 NRF2-GOF [1]) [nM] | EC50 viability (DLD1 NRF2-WT [2]) [nM] | SMILES | drug sensitivity score (DLD1 NRF2-GOF [3]) | drug sensitivity score (DLD1 NRF2-WT [4]) | drug sensitivity score (DLD1 NRF2-GOF [5]) | drug sensitivity score (DLD1 NRF2-WT [6]) | TC50 cytotoxicity (DLD1 NRF2-GOF [7]) [nM] | TC50 cytotoxicity (DLD1 NRF2-WT [8]) [nM]
301 | 269 | COc1ccc(S(=O)(=O)Nc2cccnc2Nc2ccc(O)cc2)cc1 [ABT-751] | 3.6 | 2.1 | 14.4 | 15.3 | 1070 | –
1.3 | 6.7 | Cc1c2oc3c(C)ccc(C(=O)N[C@@H]4C(=O)N[C@H](C(C)C)C(=O)N5CCC[C@H]5C(=O)N(C)CC(=O)N(C)[C@@H](C(C)C)C(=O)O[C@@H]4C)c3nc-2c(C(=O)N[C@@H]2C(=O)N[C@H](C(C)C)C(=O)N3CCC[C@H]3C(=O)N(C)CC(=O)N(C)[C@@H](C(C)C)C(=O)O[C@@H]2C)c(N)c1=O [Dactinomycin] | 0 | 1.4 | 31.3 | 24.8 | > 1000 | –
114 | 226 | Cc1ccc(C(=O)Nc2ccc(CN3CCN(C)CC3)c(C(F)(F)F)c2)cc1C#Cc1cnc2cccnn12 [Ponatinib] | – | – | 6 | 4 | – | –
638 | 576 | Cc1cc(Nc2cc(N3CCN(C)CC3)nc(/C=C/c3ccccc3)n2)n[nH]1 [ENMD-2076] | 4.4 | 1.4 | 11.3 | 11.4 | – | > 10000
1840 | 3080 | CCN(CC)CCOc1ccc(/C(=C(/Cl)c2ccccc2)c2ccccc2)cc1 [Clomifene] | – | – | 7.8 | 5.4 | – | –
2.1 | 3.4 | CC(=O)O[C@@]12CO[C@@H]1C[C@H](O)[C@@]1(C)C(=O)[C@H](O)C3=C(C)[C@@H](OC(=O)[C@H](O)[C@@H](NC(=O)OC(C)(C)C)c4ccccc4)C[C@@](O)([C@@H](OC(=O)c4ccccc4)[C@H]21)C3(C)C [Docetaxel] | 6.6 | 6.8 | 26.6 | 25.2 | – | –
99.2 | 155 | Cc1cc(Nc2cc(N3CCN(C)CC3)nc(Sc3ccc(NC(=O)C4CC4)cc3)n2)n[nH]1 [Tozasertib] | 11.6 | 5.7 | 15.9 | 14.2 | 31.1 | –
4.8 | 5.1 | CC[C@@H]1C(=O)N(C)c2cnc(Nc3ccc(C(=O)N[C@H]4CC[C@H](N5CCN(CC6CC6)CC5)CC4)cc3OC)nc2N1C(C)C [Volasertib] | 6 | 7 | 18.8 | 20.7 | – | –
> 1000 | 99.7 | CC1CCC(n2c3cnccc3c3cnc(Nc4ccc5c(n4)CCN(C(=O)CO)C5)nc32)CC1 (centres undefined) [AMG-925] | – | – | 0.5 | 3.2 | – | –
107 | 106 | COc1cc(OC)c(/C=C/S(=O)(=O)Cc2ccc(OC)c(NCC(=O)O)c2)c(OC)c1 [Rigosertib] | 9.4 | 5.9 | 19 | 21 | 190 | –
92.6 | > 1000 | Cc1[nH]nc(C(F)(F)F)c1Cc1sc2c(c1C(=O)N1C[C@](C)(O)CO1)c(=O)n(C)c(=O)n2C(C)C [AZD3965] | – | – | 3.5 | 2.3 | – | –
21.5 | 21 | Cc1nc(Nc2n[nH]c3c2CN(C(=O)N[C@H](CN(C)C)c2ccccc2)C3(C)C)c2sccc2n1 | 1.8 | 2.1 | 27.5 | 28.2 | > 10000 | –
1710 | – | O=C(CCCCCCC(=O)Nc1ccc([C@H]2O[C@@H](CSc3nc(-c4ccccc4)c(-c4ccccc4)o3)C[C@@H](c3ccc(CO)cc3)O2)cc1)NO [Tubacin] | 0 | 0 | 3 | 2.7 | > 10000 | > 10000
8.8 | – | CC/C(=C(\c1ccc(O)cc1)c1ccc(OCCN(C)C)cc1)c1ccccc1 [4-hydroxytamoxifen] | 0 | 0 | 10.6 | 5 | > 10000 | > 10000
936 | 1090 | COc1cc([C@@H]2c3cc4c(cc3[C@@H](O[C@@H]3O[C@@H]5CO[C@@H](C)O[C@H]5[C@H](O)[C@H]3O)[C@H]3COC(=O)[C@H]23)OCO4)cc(OC)c1O [Etoposide] | 1.8 | 2.7 | 6.3 | 8.5 | > 10000 | –
> 1000 | – | O=C(NOC[C@H](O)CO)c1ccc(F)c(F)c1Nc1ccc(I)cc1F | 0 | 0 | 0.1 | 2 | > 1000 | > 1000
87.1 | – | CNC(=O)c1cc(Oc2ccc(NC(=O)Nc3ccc(Cl)c(C(F)(F)F)c3)cc2)ccn1 [Sorafenib] | 0 | 0 | 3.3 | 1.2 | > 1000 | > 1000
